Numbered stars: 1 amine (or outer) side, 2 acyl side, 3 side chain; on linkers, the order of the positions; unused ones are H or OH. Bridge positions count the residues as written; N and C are the ends. Square brackets hold non-standard residues; d marks the D form. Peptide text beside a SMILES is read from it. * marks the point of attachment. hPhe(3,5-F2-4-CF3) = N[C@@H](CCc1cc(F)c(C(F)(F)F)c(F)c1)C(=O)O; hPhe(3-Cl-4-CF3) = N[C@@H](CCc1ccc(C(F)(F)F)c(Cl)c1)C(=O)O; NMePhe(4-CF3) = CN[C@@H](Cc1ccc(C(F)(F)F)cc1)C(=O)O; X52 = CN([C@@H](Cc1ccccc1OC(F)(F)F)C(=O)[*:2])[*:1]; NMePhe(4-Cl) = CN[C@@H](Cc1ccc(Cl)cc1)C(=O)O; Leu(4,5-dehydro) = C=C(C)C[C@H](N)C(=O)O; NMeAla(cPent) = CN[C@@H](CC1CCCC1)C(=O)O; X72 = O=C([C@@H]1Cc2ccccc2N1[*:1])[*:2]; NMeGly(cPent) = CN[C@H](C(=O)O)C1CCCC1; Phe(3-I) = N[C@@H](Cc1cccc(I)c1)C(=O)O; NMeCha = CN[C@@H](CC1CCCCC1)C(=O)O; NMeChg = CN[C@H](C(=O)O)C1CCCCC1; NMeI = CC[C@H](C)[C@H](NC)C(=O)O; NMeT = CN[C@H](C(=O)O)[C@@H](C)O; NMeD = CN[C@@H](CC(=O)O)C(=O)O; NMeL = CN[C@@H](CC(C)C)C(=O)O; NMeV = CN[C@H](C(=O)O)C(C)C; d(β3hA) = C[C@@H](N)CC(=O)O; NMeA = CN[C@@H](C)C(=O)O; NMeAib = CNC(C)(C)C(=O)O; Piperidide = C1CCN(*)CC1; Pra = C#CC[C@H](N)C(=O)O; Pyrrolidide = C1CCN(*)C1; Ac5c = NC1(C(=O)O)CCCC1; Aze = O=C(O)[C@@H]1CCN1; Sar = CNCC(=O)O
Tested on: Human pancreatic cancer cell line AsPC-1 (G12D mutation Kras)
Test: AsPC-1 cell growth inhibition (AsPC-1 CGI)
Type: cell-based
Details: read-out: AsPC-1 cell growth inhibition, 50% growth inhibitory concentration (IC50 value); 96 hours, CellTiter-Glo, values classified in ranges
Protocol: Test compounds were serially dilated with dimethyl sulfoxide, and 200 nL was then dispensed to a U-bottom 96-well plate using Labcyte Echo. […] The cell suspension was dispensed to a. plate containing a test compound at 100 μL per well and incubated at 37° C. in a 5% carbon dioxide gas incubator. 96 hours later, 80 μL of CellTiter-Glo (Promega) was added to each well and fluorescence was measured.

`CC(C)C[C@H]1C(=O)N[C@@H](CO)C(=O)N(C)[C@@H](C)C(=O)N2CC[C@H]2C(=O)N(C)[C@@H](CC2CCCCC2)C(=O)N(C)CC(=O)N[C@@H](CCc2ccc(C(F)(F)F)c(Cl)c2)C(=O)N2CCC[C@H]2C(=O)NC2(CCCC2)C(=O)N(C)[C@@H](C(C)C)C(=O)N(C)[C@H](C(=O)N2CCCCC2)CC(=O)N1C` [Compound 1768] ([NMeL]S[NMeA][Aze][NMeCha][Sar][hPhe(3-Cl-4-CF3)]P[Ac5c][NMeV][NMeD]-Piperidide; lactam N-11) and `CC[C@H](C)[C@@H]1NC(=O)[C@H](CC(C)C)N(C)C(=O)C[C@@H](C(=O)N2CCCCC2)N(C)C(=O)[C@H]([C@@H](C)O)N(C)C(=O)C2(CCCC2)NC(=O)[C@@H]2CCCN2C(=O)[C@H](CCc2ccc(C(F)(F)F)c(Cl)c2)NC(=O)CN(C)C(=O)[C@H](CC2CCCCC2)N(C)C(=O)CN(C)C(=O)CN(C)C1=O` [Compound 1041] ([NMeL]I[Sar][Sar][NMeCha][Sar][hPhe(3-Cl-4-CF3)]P[Ac5c][NMeT][NMeD]-Piperidide; lactam N-11) cannot be ordered by IC50: over 500 nM for the first, over 500 nM for the second.

First: CC[C@H](C)[C@@H]1NC(=O)[C@H](CC(C)C)N(C)C(=O)C[C@@H](C(=O)N2CCCCC2)N(C)C(=O)[C@H](C2CCCCC2)N(C)C(=O)C2(CCCC2)NC(=O)[C@@H]2Cc3ccccc3N2C(=O)[C@H](CCc2ccc(C(F)(F)F)c(Cl)c2)NC(=O)CN(C)C(=O)[C@H](CC2CCCCC2)N(C)C(=O)[C@@H]2CCN2C(=O)[C@H](C)N(C)C1=O [Compound 812] ([NMeL]I[NMeA][Aze][NMeCha][Sar][hPhe(3-Cl-4-CF3)][X72][Ac5c][NMeChg][NMeD]-Piperidide; lactam N-11)
Second: CC[C@H](C)[C@@H]1NC(=O)[C@H](CC2CCCC2)N(C)C(=O)C[C@@H](C(=O)N2CCCC2)N(C)C(=O)[C@H]([C@@H](C)CC)N(C)C(=O)C2(CCCC2)NC(=O)[C@@H]2CCCN2C(=O)[C@H](CCc2ccc(C(F)(F)F)c(Cl)c2)NC(=O)CN(C)C(=O)[C@H](Cc2ccc(C(F)(F)F)cc2)N(C)C(=O)[C@@H]2CCN2C(=O)[C@H](C)N(C)C1=O [Compound 1183] ([NMeAla(cPent)]I[NMeA][Aze][NMePhe(4-CF3)][Sar][hPhe(3-Cl-4-CF3)]P[Ac5c][NMeI][NMeD]-Pyrrolidide; lactam N-11)
The IC50 of the first is higher: over 500 nM for the first, at most 20 nM for the second. The second is the more potent here.

`C=C(C)C[C@@H]1NC(=O)[C@H](Cc2cccc(I)c2)NC(=O)CN(C)C(=O)[C@H](Cc2ccc(Cl)cc2)N(C)C(=O)[C@@H]2CCN2C(=O)CN(C)C(=O)[C@H]([C@@H](C)CC)NC(=O)[C@H](CC(C)C)N(C)C(=O)C[C@@H](C(=O)N2CCCCC2)N(C)C(=O)[C@H](CC(C)C)NC(=O)C(C)(C)N(C)C1=O` [Compound 1414] ([NMeL]I[Sar][Aze][NMePhe(4-Cl)][Sar][Phe(3-I)][Leu(4,5-dehydro)][NMeAib]L[NMeD]-Piperidide; lactam N-11) and `C#CC[C@@H]1NC(=O)[C@H](Cc2cccc(I)c2)NC(=O)CN(C)C(=O)[C@H](Cc2ccc(Cl)cc2)N(C)C(=O)CN(C)C(=O)CN(C)C(=O)[C@H]([C@@H](C)CC)NC(=O)[C@H](CC(C)C)N(C)C(=O)C[C@@H](C(=O)N2CCCCC2)N(C)C(=O)[C@H](CC(C)C)NC(=O)C(C)(C)N(C)C1=O` [Compound 1426] ([NMeL]I[Sar][Sar][NMePhe(4-Cl)][Sar][Phe(3-I)][Pra][NMeAib]L[NMeD]-Piperidide; lactam N-11) cannot be ordered by IC50: over 500 nM for the first, over 500 nM for the second.

`CC[C@H](C)[C@@H]1NC(=O)[C@H](CC(C)C)N(C)C(=O)C[C@@H](C(=O)N(C)C)N(C)C(=O)[C@H]([C@@H](C)CC)N(C)C(=O)C2(CCCC2)NC(=O)[C@@H]2CCCN2C(=O)[C@H](CCc2ccc(C(F)(F)F)c(Cl)c2)NC(=O)CN(C)C(=O)[C@H](CC2CCCCC2)N(C)C(=O)[C@@H]2CCN2C(=O)[C@H](C)N(C)C1=O` [Compound 1858] ([NMeL]I[NMeA][Aze][NMeCha][Sar][hPhe(3-Cl-4-CF3)]P[Ac5c][NMeI][NMeD]-NMe2; lactam N-11) and `CC[C@H](C)[C@@H]1NC(=O)[C@H](CC(C)C)N(C)C(=O)C[C@@H](C(=O)N2CCCC2)N(C)C(=O)[C@H](C2CCCC2)N(C)C(=O)C2(CCCC2)NC(=O)[C@@H]2CCCN2C(=O)[C@H](CCc2cc(F)c(C(F)(F)F)c(F)c2)NC(=O)CN(C)C(=O)[C@H](CC2CCCCC2)N(C)C(=O)CN(C)C(=O)CN(C)C1=O` [Compound 1342] ([NMeL]I[Sar][Sar][NMeCha][Sar][hPhe(3,5-F2-4-CF3)]P[Ac5c][NMeGly(cPent)][NMeD]-Pyrrolidide; lactam N-11) cannot be ordered by IC50: at most 20 nM for the first, at most 20 nM for the second.

`CC[C@H](C)[C@@H]1NC(=O)[C@H](CC(C)C)N(C)C(=O)C[C@@H](C)NC(=O)[C@H](C(C)C)N(C)C(=O)C2(CCCC2)NC(=O)[C@@H]2CCCN2C(=O)[C@H](CCc2ccc(C(F)(F)F)c(Cl)c2)NC(=O)CN(C)C(=O)[C@H](Cc2ccccc2OC(F)(F)F)N(C)C(=O)CN(C)C(=O)CN(C)C1=O` [Compound 1635] (cyclo([Ac5c][NMeV][d(β3hA)][NMeL]I[Sar][Sar][X52][Sar][hPhe(3-Cl-4-CF3)]P)) gave an IC50 of over 500 nM.
